Numbers after ± are expanded uncertainties.
Columns and labels:
[1] = 101 kPa, Liquid; for viscosity: Capillary tube (Ostwald / Ubbelohde) method; for mass density: Pycnometric method
[2] = xn = mol fraction of the nth substance listed; conditions: 101 kPa, Liquid; for viscosity: Capillary tube (Ostwald / Ubbelohde) method; for mass density: Pycnometric method

COCC(C)OC(C)=O (configuration not stated) [1-methoxy-2-propyl acetate]
[1]
Conditions	mass density [kg/m3]	viscosity [mPa·s]
298.15 K	961.4 ± 2	1.071 ± 0.08
308.15 K	951.4 ± 2	0.904 ± 0.08
318.15 K	940.7 ± 2	0.777 ± 0.08

COCC(C)OC(C)=O (configuration not stated) [1-methoxy-2-propyl acetate] + C=C(C)C(=O)O
[2], x1 = 1
Conditions	mass density [kg/m3]	viscosity [mPa·s]
298.15 K	961.4 ± 2	1.071 ± 0.023
308.15 K	951.4 ± 2	0.904 ± 0.019
318.15 K	940.7 ± 2	0.777 ± 0.017

COCC(C)OC(C)=O (configuration not stated) [1-methoxy-2-propyl acetate] + C=C(C)C(=O)OCCO
[2], x1 = 1
Conditions	mass density [kg/m3]	viscosity [mPa·s]
298.15 K	961.4 ± 2	1.071 ± 0.08
308.15 K	951.4 ± 2	0.904 ± 0.08
318.15 K	940.7 ± 2	0.777 ± 0.08

COCC(C)OC(C)=O (configuration not stated) [1-methoxy-2-propyl acetate] + C=C(C)C(=O)OCc1ccccc1
[2], x1 = 1
Conditions	mass density [kg/m3]	viscosity [mPa·s]
298.15 K	961.4 ± 2	1.071 ± 0.061
308.15 K	951.4 ± 2	0.904 ± 0.06
318.15 K	940.7 ± 2	0.777 ± 0.06

C=C(C)C(=O)OCCO [2-hydroxyethyl 2-methyl-2-propenoate]
[1]
Conditions	mass density [kg/m3]	viscosity [mPa·s]
298.15 K	1067.1 ± 2.4	5.784 ± 0.13
308.15 K	1057.7 ± 2.4	4.194 ± 0.096
318.15 K	1048.6 ± 2.4	3.181 ± 0.088

C=C(C)C(=O)OCCO [2-hydroxyethyl 2-methyl-2-propenoate] + COCC(C)OC(C)=O
[2]
Conditions	mass density, 298.15 K [kg/m3]	mass density, 308.15 K [kg/m3]	mass density, 318.15 K [kg/m3]	viscosity, 298.15 K [mPa·s]	viscosity, 308.15 K [mPa·s]	viscosity, 318.15 K [mPa·s]
x2 = 0	1067.1 ± 2.4	1057.7 ± 2.4	1048.6 ± 2.4	5.784 ± 0.13	4.194 ± 0.096	3.181 ± 0.088
x2 = 0.1	1056.4 ± 2.4	1046.7 ± 2.3	1037.3 ± 2.3	4.764 ± 0.11	3.519 ± 0.089	2.71 ± 0.085
x2 = 0.2	1045.7 ± 2.3	1035.9 ± 2.3	1026.1 ± 2.3	3.84 ± 0.089	2.9 ± 0.085	2.273 ± 0.083
x2 = 0.3	1034.9 ± 2.3	1025 ± 2.2	1015.1 ± 2.2	3.222 ± 0.086	2.477 ± 0.084	1.969 ± 0.082
x2 = 0.4	1024.1 ± 2.2	1014.2 ± 2.2	1004.1 ± 2.2	2.719 ± 0.084	2.123 ± 0.083	1.709 ± 0.082
x2 = 0.5	1013.5 ± 2.2	1003.5 ± 2.2	993.3 ± 2.1	2.257 ± 0.083	1.79 ± 0.082	1.461 ± 0.081
x2 = 0.6	1003 ± 2.1	993 ± 2.1	982.6 ± 2.1	1.922 ± 0.082	1.55 ± 0.081	1.284 ± 0.081
x2 = 0.7	992.6 ± 2.1	982.5 ± 2.1	972 ± 2.1	1.651 ± 0.081	1.341 ± 0.081	1.117 ± 0.081
x2 = 0.8	982.2 ± 2.1	971.9 ± 2	961.3 ± 2	1.389 ± 0.081	1.147 ± 0.081	0.969 ± 0.08
x2 = 0.8999	971.8 ± 2	961.5 ± 2	950.8 ± 2	1.234 ± 0.081	1.052 ± 0.08	0.889 ± 0.08

C=C(C)C(=O)O [2-methyl-2-propenoic acid]
[1]
Conditions	mass density [kg/m3]	viscosity [mPa·s]
298.15 K	1009.5 ± 2	1.267 ± 0.026
308.15 K	999.4 ± 2	1.078 ± 0.023
318.15 K	989.2 ± 2	0.945 ± 0.02

C=C(C)C(=O)O [2-methyl-2-propenoic acid] + COCC(C)OC(C)=O
[2]
Conditions	mass density, 298.15 K [kg/m3]	mass density, 308.15 K [kg/m3]	mass density, 318.15 K [kg/m3]	viscosity, 298.15 K [mPa·s]	viscosity, 308.15 K [mPa·s]	viscosity, 318.15 K [mPa·s]
x2 = 0	1009.5 ± 2	999.4 ± 2	989.2 ± 2	1.267 ± 0.026	1.078 ± 0.023	0.945 ± 0.02
x2 = 0.1	1004 ± 2	994.1 ± 2	983.9 ± 2	1.423 ± 0.03	1.202 ± 0.025	1.033 ± 0.022
x2 = 0.2	999 ± 2	989.3 ± 2	979.4 ± 2	1.506 ± 0.032	1.301 ± 0.027	1.105 ± 0.023
x2 = 0.3	993.9 ± 2	984.1 ± 2	973.9 ± 2	1.56 ± 0.033	1.345 ± 0.028	1.124 ± 0.024
x2 = 0.3999	989.1 ± 2	979.2 ± 2	968.9 ± 2	1.585 ± 0.033	1.348 ± 0.028	1.125 ± 0.024
x2 = 0.5	984.8 ± 2	975 ± 2	964.8 ± 2	1.569 ± 0.033	1.31 ± 0.028	1.1 ± 0.023
x2 = 0.6	980.1 ± 2	970.3 ± 2	959.9 ± 2	1.499 ± 0.032	1.24 ± 0.026	1.049 ± 0.022
x2 = 0.7	975.8 ± 2	966 ± 2	955.5 ± 2	1.411 ± 0.03	1.168 ± 0.025	0.988 ± 0.021
x2 = 0.7999	970.8 ± 2	960.9 ± 2	950.5 ± 2	1.301 ± 0.028	1.081 ± 0.023	0.929 ± 0.02
x2 = 0.9	965.8 ± 2	956 ± 2	945.6 ± 2	1.175 ± 0.025	0.985 ± 0.021	0.844 ± 0.018

C=C(C)C(=O)OCc1ccccc1 [benzyl methacrylate]
[1]
Conditions	mass density [kg/m3]	viscosity [mPa·s]
298.15 K	1034.7 ± 2.3	2.302 ± 0.065
308.15 K	1025.8 ± 2.3	1.885 ± 0.064
318.15 K	1017 ± 2.3	1.58 ± 0.063

C=C(C)C(=O)OCc1ccccc1 [benzyl methacrylate] + COCC(C)OC(C)=O
[2]
Conditions	mass density, 298.15 K [kg/m3]	mass density, 308.15 K [kg/m3]	mass density, 318.15 K [kg/m3]	viscosity, 298.15 K [mPa·s]	viscosity, 308.15 K [mPa·s]	viscosity, 318.15 K [mPa·s]
x2 = 0	1034.7 ± 2.3	1025.8 ± 2.3	1017 ± 2.3	2.302 ± 0.065	1.885 ± 0.064	1.58 ± 0.063
x2 = 0.1	1029 ± 2.3	1019.9 ± 2.3	1010.9 ± 2.3	2.245 ± 0.065	1.84 ± 0.063	1.544 ± 0.062
x2 = 0.2	1023.1 ± 2.3	1013.8 ± 2.2	1004.6 ± 2.2	2.123 ± 0.064	1.743 ± 0.063	1.465 ± 0.062
x2 = 0.3	1017 ± 2.2	1007.6 ± 2.2	998.2 ± 2.2	1.991 ± 0.063	1.638 ± 0.062	1.377 ± 0.062
x2 = 0.4	1010.6 ± 2.2	1001.1 ± 2.2	991.5 ± 2.2	1.857 ± 0.063	1.53 ± 0.062	1.289 ± 0.061
x2 = 0.4999	1003.8 ± 2.2	994.2 ± 2.1	984.4 ± 2.1	1.694 ± 0.062	1.399 ± 0.061	1.183 ± 0.061
x2 = 0.6	996.6 ± 2.1	986.9 ± 2.1	976.9 ± 2.1	1.559 ± 0.062	1.286 ± 0.061	1.086 ± 0.061
x2 = 0.7	989 ± 2.1	979.2 ± 2.1	969 ± 2.1	1.434 ± 0.061	1.189 ± 0.061	1.007 ± 0.061
x2 = 0.8	980.7 ± 2.1	970.7 ± 2	960.3 ± 2	1.327 ± 0.061	1.105 ± 0.061	0.937 ± 0.061
x2 = 0.9	971.9 ± 2	961.8 ± 2	951.2 ± 2	1.232 ± 0.061	1.028 ± 0.061	0.874 ± 0.06

Reference: the NIST ThermoML archive (doi:10.1021/je050196o)
